The values below are quoted from earlier work in PMC12060149 (RSC Advances, 2025).

In one series the target is ACE2 (Homo sapiens, UniProt Q9BYF1).
The subject of a further series is breast cancer tumor. To be noted: mice.

Chain of ACE2 (Q9BYF1 18-805): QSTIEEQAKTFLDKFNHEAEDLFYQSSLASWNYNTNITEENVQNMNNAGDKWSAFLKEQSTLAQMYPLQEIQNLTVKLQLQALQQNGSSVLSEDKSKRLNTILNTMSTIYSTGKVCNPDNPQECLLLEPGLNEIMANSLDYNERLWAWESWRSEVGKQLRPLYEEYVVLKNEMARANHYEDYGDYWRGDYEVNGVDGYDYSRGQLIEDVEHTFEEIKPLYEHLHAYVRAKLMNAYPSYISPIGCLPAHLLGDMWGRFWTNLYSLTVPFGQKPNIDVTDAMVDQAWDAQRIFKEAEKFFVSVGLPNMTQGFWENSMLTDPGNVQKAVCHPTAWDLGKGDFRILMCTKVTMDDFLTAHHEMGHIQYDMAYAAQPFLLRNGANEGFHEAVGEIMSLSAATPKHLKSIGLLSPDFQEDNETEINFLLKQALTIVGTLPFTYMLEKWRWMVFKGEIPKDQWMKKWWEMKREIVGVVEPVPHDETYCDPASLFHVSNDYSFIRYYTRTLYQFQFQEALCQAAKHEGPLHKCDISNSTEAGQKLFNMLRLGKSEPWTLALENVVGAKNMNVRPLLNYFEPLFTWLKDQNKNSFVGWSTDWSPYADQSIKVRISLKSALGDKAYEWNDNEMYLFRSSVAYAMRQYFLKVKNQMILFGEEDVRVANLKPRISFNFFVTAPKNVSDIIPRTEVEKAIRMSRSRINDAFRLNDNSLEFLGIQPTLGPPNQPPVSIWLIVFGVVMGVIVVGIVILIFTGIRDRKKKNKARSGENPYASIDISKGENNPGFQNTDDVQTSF

On to `NCCC(=O)N[C@@H](Cc1cnc[nH]1)C(=O)O` [carnosine, Carnosine], for which the “concentration range of mild ACE2 inhibition” value on ACE2 was 100 to 300 mM. In addition, the MCF-7 proliferation result in the series on MCF-7 (carnosine in the 100–300 mM range) is reported as “increased but non-significantly”. For the same molecule, in the series with MCF-7 (read-out: IC50 of antiproliferative effect, two other research groups), the concentration for half-maximal inhibition (IC50) was about 68 mM. Besides, the “breast cancer tumor size” value with breast cancer tumor is “reduces the breast cancer tumor size”.

The IC50 is the point on the concentration scale where inhibition reaches its midpoint.
